Assay results reported in patent US4042693A, “Derivatives of 1,2,4-thiadiazine” (A. Christiaens Societe Anonyme, priority 1975, dated 1977).

These compounds were tested on paw of rats (assay: Anti-inflammatory test: carrageenan-induced rat paw swelling (plethysmography), oral). Settings: oral route one hour before carrageenan injection, swelling determined 4 hours after injection, versus control group, dose not given.
Assay type: in vivo
Method: The compounds to be tested are given as freshly prepared solutions or suspensions by oral route one hour before injecting the paw of rats with carrageenan which is a known inflammatory agent.
The inflammatory agent (carrageenan) either in solution or suspension is then injected into the plantar tissue of the right hind paw of each rat, the left paw remaining untreated and serving as control. Each animal receives, for example, 0.05 ml of an aqueous solution containing 1% by weight of carrageenan and 0.9% of sodium chloride.
4 Hours after the injection of the inflammatory agent, the importance of swelling is determined by plethysmography and is expressed as a percent of the volume of the control paw.
The anti-inflammatory effect expressed as a percentage of inhibition is obtained by comparison between rats treated with the anti-inflammatory compound and a control group of rats.

Structure (SMILES)	% inhibition of acute oedema
O=S1(=O)N=C(c2ccccc2)N(c2cccc(C(F)(F)F)c2)c2ccncc21 [Example 1, 3-phenyl-4-metatrifluoromethylphenyl-4H-pyridino-[4,3-e]-1,2,4-thiadiazine-1,1-dioxide]	53.6%
CCc1cccc(N2C(c3ccc(Cl)cc3)=NS(=O)(=O)c3cnccc32)c1 [Example 3, 3-parachlorophenyl-4-(3'-ethylphenyl)-4H-pyrido-[4,3-e]-1,2,4-thiadiazine-1,1-dioxide]	60%
O=S1(=O)N=C(c2ccc(Cl)cc2)N(c2cc(Cl)cc(Cl)c2)c2ccncc21 [Example 2, 3-parachlorophenyl-4-(3',5'-dichlorophenyl)-4H-pyridino-[4,3-e]-1,2,4-thiadiazine-1,1-dioxide]	57%
COc1cccc(N2C(c3ccccc3Cl)=NS(=O)(=O)c3cnccc32)c1 [Example 4, 3-orthochlorophenyl-4-(3-methoxyphenyl)-4H-pyrido-[4,3-e]-1,2,4-thiadiazine-1,1-dioxide]	40%
